Assay results: patent US11453841B2, “Functionalized branched alcohols as non-ionic sugar surfactants” (ExxonMobil Technology and Engineering Company, priority 2019, dated 2022)

Assay: Surface tension isotherms
Type: physicochemical
Settings: 22° C.
Experimental: Surface tension isotherms were measured for selected functionalized branched alcohols EXXAL™ 11-Glucose-3(EO )Linker (also referred to herein as “EXXAL™ 11-EO3-Glucoside”) and EXXAL™ 11-Galactose-3(EO)Linker, as well as comparative alkoxylated alcohol glycoside n-undecanol-glucose-3(EO)Linker (also referred to herein as “Undecanol-EO3-Glucoside”). The names, chemical structures, and weight average molecular weights of these functionalized branched alcohols are as follows:
Tables 7, 8 and 9 immediately below provide surface tension isotherms for the compounds 1, 2, and 3 measured at 22° C. Specifically, Table 7 provides surface tension data of n-undecanol-glucose-3(EO)Linker, Table 8 provides surface tension data of EXXAL™ 11-Gluscose-3(EO)Linker, and Table 9 provides surface tension data of EXXAL™ 11-Galactose-3(EO)Linker.

CCCCCCCCCCCOCCOCCOCCOC1OC(CO)C(O)C(O)C1O (stereo not drawn) [Compound 1, n-undecanol-glucose-3(EO)Linker]
Surface Tension (γ) (Molarity 0.000125058 mol/L): 41.0 mN/m | Surface Tension (γ) (Molarity 0.000339945 mol/L): 34.5 mN/m | Surface Tension (γ) (Molarity 0.000924077 mol/L): 33.2 mN/m | Surface Tension (γ) (Molarity 0.001928806 mol/L): 33.1 mN/m | Surface Tension (γ) (Molarity 1.69248E−05 mol/L): 55.6 mN/m | Surface Tension (γ) (Molarity 2.29052E−06 mol/L): 66.4 mN/m | Surface Tension (γ) (Molarity 4.60064E−05 mol/L): 48.6 mN/m | Surface Tension (γ) (Molarity 6.22628E−06 mol/L): 61.5 mN/m | Surface Tension (γ) (Molarity 8.42635E−07 mol/L): 70.2 mN/m
